≈ marks a conversion by molar mass, not a printed value.
Columns and labels:
[1] = test system: human leukemia cells (CCRF-CEM cell line); test: Growth inhibition of human leukemia cells (CCRF-CEM cytotoxicity screen); format: cell-based; details: concentration giving 50 percent growth inhibition; CCRF-CEM cell line
From the text: In another aspect, the invention provides a method of treating susceptible neoplasms in mammals comprising administering to a mammal in need of such treatment a pharmaceutically effective amount of a compound of formula (I). […] The treatment contemplated by the present method includes both medical therapeutic and prophylactic treatment, as appropriate. The specific dosage level of the compound administered according to this invention will, of course, be determined by the circumstances surrounding the case, including, for example, the particular compound administered, the route of administration, and the condition being treated. The compounds are effectively administered orally, topically, or parenterally. […] The representative compounds of formula (I) employed in the present invention are cytotoxic as they inhibit the growth of rapidly dividing human leukemia cells (CCRF-CEM cell line). Table 1 below gives the results of testing several compounds representative of formula (I).

[2] = test system: Human Cytomegalovirus (HCMV) strain AD169; test: Human Cytomegalovirus Test (plaque inhibition in WI-38 cells); format: cell-based; details: read-out: Percent Plaque Inhibition at Specified µg/ml conc.
Method: WI-38 cells (American Type Culture Collection; CCL-35) were seeded into 24-well plates in MEM media (GIBCO) supplemented with 10% fetal bovine serum and penicillin/streptomycin. The plates wre incbated at 37°C, in 5 percent carbon dioxide in a humidified incubator for 3 days. Human Cytomegalovirus (HCMV) strain AD169 (American Type Culture Collection) was added to each well (40 plaque forming unites in 100 µl of media) and the virus was allowed to adsorb to the cells for 2 hours at room temperature. The compound of Example 5 was dissolved in 100 percent dimethylsulfoxide at a concentration of 20 mgs/ml and diluted with media to yield final concentrations of 50, 25, 12.5, 6.25, 3.13, 1.6, 0.8, 0.4, 0.2, and 0.1 µg/ml in one set of experiments and 32, 10, 3.2, 1, and 0.32 µg/ml in another set of experiments. Each concentration was done in duplicate. In all experiments, Cytovene (DHPG) was used as a positive control.
The infected cells were incubated for 10 days at 37°C, 5 percent carbon dioxide, in an humidified incubator without changes of media. After incubation, the cells were fixed for at least 15 minutes with 10 percent formalin and rinsed with water. After rinsing, the cells were stained for at least 15 minutes with crystal violet and allowed to dry. HCMV induced plaques were counted with the aid of an iverted microscope. The number of viral plaques appearing in cells treated with each concentration of the Example 5 compound was compared to the number of viral plaques in cells left untreated ("no-drug control") and the percent inhibition of viral plaque formation was calculated. The concentration of the Example 5 compound required to inhibit viral plaque formation by 50 percent was determined using linear regression analysis.

Hepatitis B Virus = Hepatitis B Virus Test (HBV DNA in supernatant of Hep10A cells, PCR / Southern blot); format: cell-based, human Hepatitis B Virus (HBV); details: 240 h
From the text: Plasmids were constructed using standard recombinant DNA techniques; see Sambrook, J., et al., Molecular Cloning: A Laboratory Manual, 2nd Edition (1989), Cold Spring Harbor Press, Cold Spring Harbor, NY. Plasmid pTHBV contains a head-to-tail dimer of the human Hepatitis B Virus (HBV) genome, subtype adw, clone into the EcoR I site of pUC9. […] and subcloned into the Sal I site of pTHBV after a two base fill-in reaction with the Klenow fragment of E. coli DNA polymerase I.
HepG2 cells (human hepatoblastoma, ATCC HB 8065) were routinely passaged in growth medium consisting of EARLE'S minimal essential media (Grand Island Biological Company (GIBCO) Bethesda Research Laboratories (BRL), Life Technologies, Inc., Gathersburg, MD.) supplemented with sodium pyruvate, 10 percent fetal bovine serum, 100 units/ml penicillin, and 100 µg/ml streptomycin. Hep10A cells were derived from HepG2 cells. Briefly, HepG2 cells were seeded into 60 mm culture dishes in growth medium, and when approximately 50 percent confluent, were transfected with pTHBVneo using the calcium phosphate precipitation method described by Graham, F.L. and Van der Eb in Virology, 52, p 456-467 (1973). After four hours of post-transfection, the cells were shocked with 10 percent dimethylsulfoxide and 20 percent glucose for 5 minutes, after which they were allowed to recover for 24 horus. The transfected cells were passaged and reseeded in the presence of growth medium containing 800 µg/ml geneticin. The cells were monitored for the appearance of geneticin resistant cells. A genecitin resistant cell line was established, and routinely passaged in growth medium containing 400 µg/ml geneticin. This cell line will be referred to as Hep10A.
Hep10A cells were seeded into 96-well microtiter plates at a density of approximately 50,000 cells per well, allowed to grow to confluence, and maintained at confluence for 2 to 4 days to allow Hepatitus B Virus derivative HBV DNA levels to stabilize; see Sells, M.A., et al., J. Virol., 62, p 2836-2844 (1987) and Korba, B.E., et al., Antiviral Res., 15, p 217-228 (1991). At this time, cells were treated with 2'-deoxy-2'-fluoroarabino-5-iodouridine (FIAU) and the compound of Example 5 for 10 days, with daily changes of media containing fresh drug. FIAU was used as a positive control. On day 10, culture supernatant samples were taken and stored at 4°C until needed. PCR analysis was performed on supernatant samples using appropriate primers to amplify a 477 base pair fragment from the "a" determinant of the surface antigen gene of HBV subtype adw. Following eletrophoresis through agarose gels, the DNA was transferred to nylon membranes (Optiblot™, IBI, New Haven, CT) by capillary action (Southern, 1975) using 1X saline sodium citrate (SSC) (1X SSC=0.15 M NaCl, 0.015 M sodium citrate). After baking in vacuo for 30 minutes, the blots were hybridized for 15 to 18 hours to 1x10⁶ cpm/ml of […] the method of random priming (Feinberg and Vogelstein, 1983). Hybridization was carried out at 42°C using 50 percent N,N-dimethylformamide, 6X saline sodium phosphate ethylenediamine tetraacetic acid (SSPE), 1.0 percent sodium dodyl sulfate (SDS), and 50 µg/ml salmon sperm DNA (1X SSPE=0.18 M NaCl; […] NaH₂PO₄, pH 7.4; 1 mmol ethylene diamine tetraacetic acid (EDTA)). The hybridized blots were washed as follows: twice in 2X SSC/0.1 percent SDS at room temperature for 1 hour, once in 0.1X SSC/0.1 percent SDS at room temperature for 30 minutes, and once in 0.1x SSC/0.1 percent supplemented with SDS at 65°C for 15 minutes. The filters were exposed to x-ray film and quantitated by densitometry.

[3] = test system: HC1 human colon carcinoma; test: HC1 human colon carcinoma xenograft in mice, tumor weight inhibition; format: in vivo, Nu/Nu CD-1 mice; details: Intra-Peritoneal 0.5 ml, Daily X 10
From the text: The HC1 human colon carcinoma xenograft was obtained in 1987 from Drs. Peter and Janet Houghton, St. Jude Children's Hospital, Memphis, TN. The tumor is a moderately well-differentiated adenocarcinoma of the ascending colon [British Journal of Cancer, 37, p 213-223 (1987)]. The first passage tumor was stored in liquid nitrogen using standard techniques. The tumors were maintained in serial passage Nu/Nu CD-1 mice (Charles River Laboratories, Portage, MI.).
The study testing the efficacy of these compounds against HC1 human colon carcinoma was initiated by removing a tumor from passage animals and mincing it into 1 to 3 mm square fragments using sterile techniques. Tumor pieces were checked for sterility using both an Antibiotic Medium 1 and Brain Heart Infusion (Difco; Detroit, MI). Tumor pieces were implanted subcutaneously in the auxilary region of recipient mice by trocar. Drug therapy on the appropriate schedule was initiated 14 days after tumor implantation. Drugs were dissolved in Emulphor for all experiments. All animals were weighed at the beginning and end of drug treatment. Food and water were provided ad libitum. On day 14 after the initiation of therapy, two dimensional measurements (width and length) of all tumors were taken using electronic calipers interfaced to a computer. Tumor weights were calculated from these measurements using the following formula: Tumor Weight (mg) = Tumor Length (mm) X Tumor Width (mm)²/2
For all data, the tumor weight was rounded to the nearest tenth of a gram for analysis. No group is included in the analysis for therapeutic activity in which deaths attributable to drug toxicity exceeded 20 percent of the treated group. Compounds are considered active if more than 60 percent inhibition of tumor growth, as determined by tumor weight, is achieved at maximally tolerated doses.
In Table 2 which follows, Column 1 gives the example number of the compound tested; Column 2, the dose level; Column 3, the route administered; Column 4, the dosage schedule; Column 5, the percent inhibition of the tumor; and Column 6; the toxic deaths observed prior to completion of the study.

[4] = read-out: Percent Inhibition at Specified µg/ml conc.

## Nc1nc(S)c2ncn([C@@H]3O[C@H](CO)[C@@H](O)C3(F)F)c2n1 [(h), 2-deoxy-2,2-difluoro-D-ribofuranosyl-1-β-(2-amino-6-thiopurine)]
[1]
  IC50: 4.3 µg/mL (≈ 13.5 µM)

## Cc1nc(N)nc2c1ncn2[C@@H]1O[C@H](CO)[C@@H](O)C1(F)F [Example 13, 2-deoxy-2,2-difluoro-D-ribofuranosyl-1-β-(2-amino-6-methylpurine)]
[1]
  IC50: 2.6 µg/mL (≈ 8.63 µM)

## Nc1nc2c(ncn2COC(CO)CO)c(=O)[nH]1 [Cytovene]
[2]; Human betaherpesvirus 5, AD169, 240 h, 0.2 µg/ml, WI-38 cells, 10 days
  inhibition at 0.2 µg/mL: 31%
[2]; Human betaherpesvirus 5, AD169, 240 h, 0.4 µg/ml, WI-38 cells, 10 days
  inhibition at 0.4 µg/mL: 31%
[2]; Human betaherpesvirus 5, AD169, 240 h, 0.8 µg/ml, WI-38 cells, 10 days
  inhibition at 0.8 µg/mL: 40%
[2]; Human betaherpesvirus 5, AD169, 240 h, 1.6 µg/ml, WI-38 cells, 10 days
  inhibition at 1.6 µg/mL: 65.5%
[2]; Human betaherpesvirus 5, AD169, 240 h, 6.25 µg/ml, WI-38 cells, 10 days
  inhibition at 6.25 µg/mL: 98%
[2]; Human betaherpesvirus 5, AD169, 240 h, 12.5 µg/ml, WI-38 cells, 10 days
  inhibition at 12.5 µg/mL: 100%
[2]; Human betaherpesvirus 5, AD169, 240 h, 25 µg/ml, WI-38 cells, 10 days
  inhibition at 25 µg/mL: 100%
[2]; Human betaherpesvirus 5, AD169, 240 h, 50 µg/ml, WI-38 cells, 10 days
  inhibition at 50 µg/mL: 100%
[2]; Human betaherpesvirus 5, AD169, WI-38, 240 h
  inhibition at 3.12 µg/mL: 91%

## N#Cc1nc(N)nc2c1ncn2[C@@H]1O[C@H](CO)[C@@H](O)C1(F)F [Example 7, 2-deoxy-2,2-difluoro-D-ribofuranosyl-1-β-(2-amino-6-cyanopurine)]
[1]
  IC50: 2.5 µg/mL (≈ 8.01 µM)

## O=c1[nH]c(=O)n([C@@H]2O[C@H](CO)[C@@H](O)[C@@H]2F)cc1I [FIAU, 2'-deoxy-2'-fluoroarabino-5-iodouridine, reference compound]
Hepatitis B Virus; [4]
  inhibition at 0.1 µg/mL: 10.8%
  inhibition at 1 µg/mL: 35.5%
  inhibition at 10 µg/mL: 65.3%
  inhibition at 100 µg/mL: 81.7%
Hepatitis B Virus; read-out: concentration required to inhibit HBV DNA replication by 50 percent
  IC50: 5.4 µg/mL (≈ 14.5 µM)

## CCOc1nc(N)nc2c1ncn2[C@@H]1O[C@H](CO)[C@@H](O)C1(F)F [Example 3, 2-deoxy-2,2-difluoro-D-ribofuranosyl-1-β-(2-amino-6-ethoxypurine)]
[1]
  IC50: 0.2 µg/mL (≈ 0.604 µM)
[3]; 25 mg/kg
  Percent Inhibition of Tumor: 98%
  Toxic Deaths: 0/10
[3]; 50 mg/kg
  Percent Inhibition of Tumor: 97%
  Toxic Deaths: 0/10
[3]; 100 mg/kg
  Percent Inhibition of Tumor: 98%
  Toxic Deaths: 0/10

## Nc1nc(I)c2ncn([C@@H]3O[C@H](CO)[C@@H](O)C3(F)F)c2n1 [Example 6, 2-deoxy-2,2-difluoro-D-ribofuranosyl-1-β-(2-amino-6-iodopurine)]
[1]
  IC50: 0.093 µg/mL (≈ 0.225 µM)

## Nc1nc(O)nc2c1ncn2[C@@H]1O[C@H](CO)[C@@H](O)C1(F)F [Example 9, 2-deoxy-2,2-difluoro-D-ribofuranosyl-1-β-(2-hydroxyadenosine)]
[1]
  IC50: 0.7 µg/mL (≈ 2.31 µM)

## COc1nc(N)nc2c1ncn2[C@@H]1O[C@H](CO)[C@@H](O)C1(F)F [Example 2, 2-deoxy-2,2-difluoro-D-ribofuranosyl-1-β-(2-amino-6-methoxypurine)]
[1]
  IC50: 0.037 µg/mL (≈ 0.117 µM)

## Nc1nc(F)nc2c1ncn2[C@@H]1O[C@H](CO)[C@@H](O)C1(F)F [Example 10, 2-deoxy-2,2-difluoro-D-ribofuranosyl-1-β-(2-fluoroadenosine)]
[1]
  IC50: 0.094 µg/mL (≈ 0.308 µM)

## CN(C)c1nc(N)nc2c1ncn2[C@@H]1O[C@H](CO)[C@@H](O)C1(F)F [Example 4, 2-deoxy-2,2-difluoro-D-ribofuranosyl-1-β-(2-amino-6-dimethylaminopurine)]
[1]
  IC50: 4.6 µg/mL (≈ 13.9 µM)

## OC[C@H]1O[C@@H](n2cnc3cncnc32)C(F)(F)[C@@H]1O [Example 11, 2-deoxy-2,2-difluoro-D-ribofuranosyl-1-β-purine]
[1]
  IC50: 1.3 µg/mL (≈ 4.78 µM)

## Nc1nc(Cl)c2ncn([C@@H]3O[C@H](CO)[C@@H](O)C3(F)F)c2n1 [Example 1, 2-deoxy-2,2-difluoro-D-ribofuranosyl-1-β-(2-amino-6-chloropurine)]
[1]
  IC50: 0.007 µg/mL (≈ 0.0218 µM)
